Measured values from patent publication US12180178B2, “Heteroaryl azole compound and pest control agent” (NIPPON SODA CO., LTD., priority 2018, dated 2024).

Columns and labels:
Type in all cases: in vivo
Mythimna separata = assay: Test of Efficacy on Mythimna separata (test feed); settings: 1 μl of emulsion (I) (5% active ingredient) in 0.8 g artificial feed; second instar larvae; 25° C.; fifth day
Experimental: 5 parts of the heteroaryl azole compound of the present invention, 93.6 parts of dimethylformamide, and 1.4 parts of polyoxyethylene alkyl aryl ether were mixed and dissolved to prepare emulsion (I) containing 5% of the active ingredient. For a control, 98.5 parts of dimethylformamide and 1.5 parts of polyoxyethylene alkyl aryl ether were mixed and dissolved to prepare emulsion (II). An insecticidal rate was calculated according to the following expression: Insecticidal rate (%)=(The number of dead insects/The number of tested insects)×100 0.8 g of commercially available artificial feed (Insecta LFS, manufactured by Nosan Corp.) and 1 μl of the emulsion (I) were well mixed to obtain test feed. A plastic test container (capacity: 1.4 ml) was packed with 0.2 g of the test feed per treatment plot. Then, two second instar larvae of Mythimna separata were inoculated to each treatment plot. A plastic lid was put on the test container so as to prevent escape of the second instar larvae of Mythimna separata. The container was placed in a thermostat chamber of 25° C. On the fifth day, the insecticidal rate and the food intake were examined. The test was conducted in duplicate. The insecticidal rate and the food intake of a control plot were examined in the same way as in Test Example 1 except that the emulsion (I) was changed to the emulsion (II).

Plutella xylostella = assay: Test of Efficacy on Plutella xylostella (cabbage leaf dip); settings: foliar, 72 h, cabbage leaves dipped 30 seconds, second instar larvae, after 3 days, read-out: insecticidal rate
Experimental: 5 parts of the heteroaryl azole compound of the present invention, 93.6 parts of dimethylformamide, and 1.4 parts of polyoxyethylene alkyl aryl ether were mixed and dissolved to prepare emulsion (I) containing 5% of the active ingredient. An insecticidal rate was calculated according to the following expression: Insecticidal rate (%)=(The number of dead insects/The number of tested insects)×100 The emulsion (I) was diluted with water such that the concentration of the compound of the present invention was 125 ppm. Cabbage leaves were dipped in the dilution for 30 seconds. The resulting cabbage leaves were placed in a petri dish. Five second instar larvae of Plutella xylostella were released thereto. The petri dish was placed in a thermostat chamber having a temperature of 25° C. and a humidity of 60%. Life and death were determined after 3 days from the release of the insects, and the insecticidal rate was calculated. The test was conducted in duplicate.

Aphis craccivora = assay: Test of Efficacy on Aphis craccivora (spray on black-eyed peas); settings: 96 h, 125 ppm, sprayed to black-eyed peas, nymphs, after 4 days, read-out: insecticidal rate
Experimental: (§1) 5 parts of the heteroaryl azole compound of the present invention, 93.6 parts of dimethylformamide, and 1.4 parts of polyoxyethylene alkyl aryl ether were mixed and dissolved to prepare emulsion (I) containing 5% of the active ingredient.
(§2) An insecticidal rate was calculated according to the following expression: Insecticidal rate (%)=(The number of dead insects/The number of tested insects)×100
Seedlings of black-eyed peas were raised in 10-cm pots. Aphis craccivora nymphs were inoculated onto primary leaves. The emulsion (I) was diluted with water such that the concentration of the compound of the present invention was 125 ppm. The dilution was sprayed to the black-eyed peas parasitized by the Aphis craccivora nymphs. The black-eyed peas were placed in a thermostat chamber having a temperature of 25° C. and a humidity of 60%. Life and death of Aphis craccivora were determined after 4 days from the spraying, and the insecticidal rate was calculated. The test was conducted in duplicate.

Phyllotreta striolata = assay: Test of Efficacy on Phyllotreta striolata (spray on Qing geng cai seedlings); settings: 168 h, sprayed to Qing geng cai seedlings, adults, after 7 days, read-out: insecticidal rate
Experimental: as §1, §2
The emulsion (I) was diluted with water such that the concentration of the compound of the present invention was 125 ppm to prepare a test chemical. The test chemical was sprayed to Qing geng cai seedlings (at the seventh true leaf stage) planted in 10-cm pots. The Qing geng cai seedlings were dried in air and then placed in a plastic cup. Ten Phyllotreta striolata adults were released thereto. The plastic cup was stored in a thermostat chamber having a temperature of 25° C. and a humidity of 65%. Life and death were determined after 7 days from the release of the insects, and the insecticidal rate was calculated. The test was conducted in duplicate.

Structure (SMILES) | insecticidal rate or food intake as compared with the control plot (Mythimna separata) | pest or weed control at 125 ppm (Plutella xylostella) [%] | pest or weed control at 125 ppm (Aphis craccivora) [%] | pest or weed control at 125 ppm (Phyllotreta striolata) [%]
CCS(=O)(=O)c1cc(-c2ccccn2)cnc1-c1cn(-c2ccc(OC(F)(F)F)cc2)cn1 [d-20] | insecticidal rate of 100% for Mythimna separata or a food intake of 10% or less as compared with the control plot | ≥ 80 | ≥ 80 | ≥ 80
CCS(=O)(=O)c1cc(C2CC2)c[n+]([O-])c1-c1cn(-c2ccc(OC(F)(F)F)cc2)cn1 [d-22] |  | ≥ 80 | ≥ 80 | ≥ 80
CCS(=O)(=O)c1cc(-c2ncccn2)cnc1-c1ncn(/C=C(\F)C(F)(F)C(F)(F)F)c1C [c-8] |  | ≥ 80 |  | ≥ 80
CCS(=O)(=O)c1cc(-c2ncccn2)cnc1-c1ncn(-c2ccc(OC(F)(F)F)cc2)n1 [d-1] |  | ≥ 80 |  | ≥ 80
CCS(=O)(=O)c1cc(-c2ncccn2)cnc1-c1ncn(/C=C(\F)C(F)(F)I)c1C [c-9] |  | ≥ 80 |  | ≥ 80
CCS(=O)(=O)c1cc(C2CC2)cnc1-c1cn(-c2ccc(OC(F)(F)F)cc2)cn1 [d-19, 5-cyclopropyl-3-(ethylsulfonyl)-2-(1-(4-(trifluoromethoxy)phenyl)-1H-imidazol-4-yl)pyridine] | insecticidal rate of 100% for Mythimna separata or a food intake of 10% or less as compared with the control plot | ≥ 80 | ≥ 80 | ≥ 80
CCS(=O)(=O)c1cc(C2CC2)cnc1-c1ncn(-c2ccc(OC(F)(F)F)cc2)n1 [d-7] |  | ≥ 80 |  | ≥ 80
CCS(=O)(=O)c1cc(-c2ncccn2)cnc1-c1ncn(CC(F)(F)C(F)(F)C(F)(F)F)c1C [c-5] | insecticidal rate of 100% for Mythimna separata or a food intake of 10% or less as compared with the control plot | ≥ 80 | ≥ 80 | ≥ 80
CCS(=O)(=O)c1ccc(-n2cncn2)nc1-c1cn(-c2ccc(OC(F)(F)F)cc2)cn1 [d-24] | insecticidal rate of 100% for Mythimna separata or a food intake of 10% or less as compared with the control plot | ≥ 80 | ≥ 80 | 
CCS(=O)(=O)c1cc(-c2ccccn2)cnc1-c1ncn(-c2ccc(OC(F)(F)F)cc2)n1 [d-6] | insecticidal rate of 100% for Mythimna separata or a food intake of 10% or less as compared with the control plot | ≥ 80 | ≥ 80 | ≥ 80
